Test results from the NIST ThermoML archive (doi:10.1016/j.jct.2017.02.009).

Experiment: xn = mol fraction of the nth substance listed
Details: 100 kPa, Liquid; for mass density: Vibrating tube method; for viscosity: Capillary tube (Ostwald / Ubbelohde) method

O=C1CCCO1 [γ-butyrolactone] + C[S+](C)[O-]
Details | mass density, 293.15 K [kg/m3] | mass density, 298.15 K [kg/m3] | mass density, 303.15 K [kg/m3] | mass density, 313.15 K [kg/m3] | viscosity, 298.15 K [mPa·s]
x2 = 0 | 1129.4 | 1124.5 | 1119.6 | 1109.8 | 1.72
x2 = 0.051 | 1127.5 | 1122.6 | 1117.7 | 1107.9 | –
x2 = 0.098 | 1125.9 | 1121 | 1116.1 | 1106.3 | 1.724
x2 = 0.152 | 1124 | 1119.1 | 1114.2 | 1104.4 | –
x2 = 0.221 | 1121.7 | 1116.8 | 1111.9 | 1102.1 | 1.724
x2 = 0.251 | 1120.7 | 1115.7 | 1110.8 | 1101 | –
x2 = 0.298 | 1119.1 | 1114.2 | 1109.3 | 1099.5 | 1.724
x2 = 0.352 | 1117.4 | 1112.5 | 1107.6 | 1097.8 | –
x2 = 0.398 | 1116 | 1111 | 1106.1 | 1096.3 | 1.739
x2 = 0.447 | 1114.5 | 1109.6 | 1104.7 | 1094.8 | –
x2 = 0.498 | 1113 | 1108 | 1103.1 | 1093.3 | 1.763
x2 = 0.546 | 1111.6 | 1106.6 | 1101.7 | 1091.9 | –
x2 = 0.596 | 1110.2 | 1105.2 | 1100.3 | 1090.4 | 1.791
x2 = 0.648 | 1108.7 | 1103.8 | 1098.8 | 1089 | –
x2 = 0.7 | 1107.4 | 1102.4 | 1097.4 | 1087.6 | 1.839
x2 = 0.742 | 1106.3 | 1101.3 | 1096.4 | 1086.4 | –
x2 = 0.797 | 1104.9 | 1099.9 | 1094.9 | 1085 | 1.883
x2 = 0.848 | 1103.6 | 1098.7 | 1093.7 | 1083.7 | –
x2 = 0.9 | 1102.4 | 1097.4 | 1092.4 | 1082.5 | 1.921
x2 = 0.95 | 1101.3 | 1096.3 | 1091.3 | 1081.3 | –
